System: Nucleic Acid
Description: Binding affinity to DNA intercalator Acridine orange.

CN1CNc2[nH]c(=O)n(C)c(=O)c21 showed a K ass of 155 M⁻¹.
Work on Clc1ncnc2[nH]cnc12 yielded a K ass of 0 M⁻¹.
c1nc2c[nH]cnc-2n1 was tested, and the K ass was 2 M⁻¹.
Cn1c(=O)c2[nH]cnc2n(C)c1=O gave a K ass of 157 M⁻¹.
For Cn1c(=O)c2c(n(C)c1=O)n(C)c(=O)n2C, the K ass was 552 M⁻¹.
In the case of Cn1c(O)nc2[nH]c(=O)[nH]c(=O)c21, the K ass is reported as 0 M⁻¹.
Oc1nc(O)c2nc(O)[nH]c2n1 showed a K ass of 0 M⁻¹.
Compound Nc1nc2[nH]cnc2c(=O)[nH]1 has a K ass of 0 M⁻¹.
For Cn1c(=O)c2[nH]c(=O)[nH]c2n(C)c1=O, the K ass was 38.5 M⁻¹.
For Cn1c(=O)[nH]c(=O)c2[nH]cnc21, the K ass was 10 M⁻¹.
Compound Cc1ncnc2nc[nH]c12 has a K ass of 0 M⁻¹.
Work on O=c1[nH]c(=O)c2nc[nH]c2[nH]1 yielded a K ass of 0 M⁻¹.
Work on Cn1c(=O)[nH]c2[nH]cnc2c1=O yielded a K ass of 79.2 M⁻¹.
For Cn1c2c(c(=O)n(C)c1=O)NCN2.N/C=C/N, the K ass was 596 M⁻¹.

— ChEMBL document CHEMBL1134323, “Structural basis for the binding affinity of xanthines with the DNA intercalator acridine orange” (J Med Chem, 2001)
